Each block holds one molecule with its values, some of them ahead of it.
Legend:
PC14 cells = experiment: Cell growth by cell counting, PC14; format: cell-based; conditions: 2 days post treatment
Procedure: Lung cancer A549 (ATCC) and PC14 (ATCC) cells were cultured in minimum essential medium (Cellgro) with 10% (v/v) fetal bovine serum (FBS) (HyClone), 2% vitamins, 1% L-glutamine, 1% non-essential amino acids and 1% sodium pyruvate. For the treatment with identified compounds, cells (2, 000 cells/well) were seeded in 24-well plates in the medium containing 2% FBS. The fresh medium containing identified compounds was added 24 hours later. Cells were cultured for various times in a CO2 incubator and the cell numbers were counted. Each experiment was performed in triplicate.
A, Lung cancer A549 cells were cultured in the presence of various concentrations (μM) of identified compounds and growth inhibition was determined by cell counting at various time points. B, Lung cancer PC14 cells were cultured in the presence of DMSO or various concentrations of identified compounds and growth inhibition was determined by cell counting 2 days post the compound treatment. C, The serum concentrations of compound C9 after oral administration. Mice were sacrificed and blood samples were collected immediately before (0 h) and at 2, 4, 6 and 8h after compound administration.

[1] = Plasma concentrations after administration, LC-MS/MS; format: in vivo, BALB/c mice; conditions: mouse
Procedure: Male BALB/c mice (8–10 weeks old) were purchased from Charles River Laboratory and were randomized for compound administration. Chemical compounds were dissolved in 0.1 ml of 0.5% (w/v) carboxymethycellulose (Sigma-Aldrich) plus 0.5% Tween 80 (Fisher Scientific) and administrated by oral gavage at the dosage of 50 mg/kg or 100 mg/kg. Mice were sacrificed and blood samples were collected immediately before (n = 5) and at 2 (n = 5), 4 (n = 5), 6 (n = 5) or 8 (n = 8) h after compound administration. Plasma samples were sent to the Pharmaceutical Development Center at MD Anderson Cancer Center for LC-MS/MS assay to determine compound concentrations.
Supplementary file pone.0181601.s001.tif: S1 Fig The serum concentrations of compound C9. The chemical compound was dissolved in 5% DMSO-0.5% Tween 80. BALB/c mice (8–10 weeks old) were randomized and administrated the vehicle (0.1 ml) or compound C9 dissolved in the vehicle (0.1 ml) by intraperitoneal (I.P.) injection at the dosage of 25, 50 or 100 mg/kg. Mice were sacrificed and blood samples were collected immediately before (0 h, n = 5) and at 2 (n = 5), 4 (n = 5), 6 (n = 5) and 8 (n = 5) h after compound administration. Plasma samples were sent to the Pharmaceutical Development Center at MD Anderson Cancer Center for LC-MS/MS assay to determine compound concentrations. (TIF) Click here for additional data file.

[2] = system: CDK2 (Rb pT821) in A549 cells; experiment: Western blot of Rb phosphorylation at T821; format: cell-based; conditions: 20 μM, 4 h
From the text: (§1) The retinoblastoma protein (Rb) is phosphorylated by CKDs in cells.
(§2) (TIF) Click here for additional data file.

[3] = system: CDK4/6 (Rb pS811) in A549 cells; experiment: Western blot of Rb phosphorylation at S811; format: cell-based; conditions: 20 μM, 4 h
From the text: as §1, §2

[4] = system: A549 lung tumor xenografts; experiment: Orthotopic lung tumor xenograft model; format: in vivo, nude mice; conditions: 100 mg/kg oral gavage daily
Procedure: Six-week old nude mice were purchased from the National Cancer Institute and maintained in a barred animal facility. Cell injection into the mouse lung was performed as described previously. Mice were treated with vehicle [0.1 ml, 0.5% (w/v) carboxymethycellulose plus 0.5% Tween 80] by oral gavage or the compound dissolved in the vehicle (0.1 ml, 100 mg/kg) for 21 days. The lungs of the mice were then removed, fixed with formaldehyde and embedded in paraffin. Paraffin-embedded lung tissue sections (4 μm) were stained with H&E and evaluated for tumors. The tumor areas in lungs were quantified using the ImageJ software program (NIH).
We used the orthotopic lung tumor model to determine effects of the compound C9a on growth of lung cancer xenografts. A549 cells were injected into the lung of nude mouse as previously reported by us. Mice were randomized and divided into two groups: (a) control mice (n = 5): administration of the vehicle [0.5% (w/v) carboxymethycellulose plus 0.5% Tween 80] by oral gavage daily; (b) treated mice (n = 10): administration of the compound C9a in the vehicle at the dosage of 100 mg/kg by oral gavage daily. […]
Fig 9 The compound C9a inhibited growth of lung tumor xenografts in nude mice. […] Histones were isolated from tumors and analyzed by SDS-PAGE stained with Commassie blue R250 (bottom) or by Western blot with anti-symmetric dimethyl arginine antibody (SYM10) (top).

Compound: CCn1c(=O)[nH]c2cc(C(=O)Nc3ccc(OC)cc3)ccc2c1=O [Compound C5]
PC14 cell growth inhibition (PC14 cells): inhibited PC14 cell growth

Compound: COc1ccc(Nc2ncnc3c2cnn3Cc2ccc(C)cc2)cc1 [Compound C9]
PC14 cell growth inhibition (PC14 cells): inhibited PC14 cell growth
plasma concentration reached ([1]; intraperitoneal injection, 100 mg/kg): 38 µM
maximal plasma concentration ([1]; oral gavage, 100 mg/kg): 5.8 µM
Rb phosphorylation at the site T821 by CDK2 [2]: failed to inhibit
Rb phosphorylation at the site S811 by CDK4/6 [3]: failed to inhibit

oral drug availability compared to C9 ([1]; oral gavage): improved oral drug availability
Compound: Nc1cccc(Nc2ncnc3c2cnn3Cc2ccccc2)c1 [Compound C9a]
average tumor size (tumor area mean) in control mice relative to treated mice ([4]; 3 weeks): 7.2 fold
effect on growth of mice (body weight) ([4]; 21 days): retarded growth of mice
Rb phosphorylation at the site T821 by CDK2 [2]: failed to inhibit
Rb phosphorylation at the site S811 by CDK4/6 [3]: failed to inhibit

Compound: Cn1cc(C(c2ccc(O)c(O)c2O)c2cn(C)c3ccccc23)c2ccccc21 [Compound C11]
PC14 cell growth inhibition (PC14 cells): inhibited PC14 cell growth
